Assay results: publication PMC10590419, “Structural and mechanistic insights into the inhibition of respiratory syncytial virus polymerase by a non-nucleoside inhibitor” (Communications Biology, 2023)
“And” between values parts separate entries of the source, which are not always exact repeats. Equal entries are not always repeated.

What was measured:
RSV MTase-CTD protein = RSV MTase-CTD protein (Human respiratory syncytial virus A, UniProt P28887); assay: Methyltransferase filter-binding assay; format: biochemical; conditions: three technical replicates
RSV L+P complex [1] = target: T1, RSV L+P complex (Human respiratory syncytial virus A, UniProt P28887); format: biochemical
RSV L+P complex [2] = target: T1, RSV L+P complex; assay: Surface plasmon resonance assay; format: binding, Human RSV (strain A2); conditions: SPR, top concentration 1 mM

T1 sequence (P03421 whole entry): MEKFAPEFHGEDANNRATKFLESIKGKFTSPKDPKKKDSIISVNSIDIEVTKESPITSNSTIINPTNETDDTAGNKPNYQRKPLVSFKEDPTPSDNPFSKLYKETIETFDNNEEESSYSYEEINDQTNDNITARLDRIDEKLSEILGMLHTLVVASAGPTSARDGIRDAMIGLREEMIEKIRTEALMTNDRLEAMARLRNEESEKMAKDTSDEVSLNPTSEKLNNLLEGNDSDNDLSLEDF
T1 sequence (P28887 whole entry): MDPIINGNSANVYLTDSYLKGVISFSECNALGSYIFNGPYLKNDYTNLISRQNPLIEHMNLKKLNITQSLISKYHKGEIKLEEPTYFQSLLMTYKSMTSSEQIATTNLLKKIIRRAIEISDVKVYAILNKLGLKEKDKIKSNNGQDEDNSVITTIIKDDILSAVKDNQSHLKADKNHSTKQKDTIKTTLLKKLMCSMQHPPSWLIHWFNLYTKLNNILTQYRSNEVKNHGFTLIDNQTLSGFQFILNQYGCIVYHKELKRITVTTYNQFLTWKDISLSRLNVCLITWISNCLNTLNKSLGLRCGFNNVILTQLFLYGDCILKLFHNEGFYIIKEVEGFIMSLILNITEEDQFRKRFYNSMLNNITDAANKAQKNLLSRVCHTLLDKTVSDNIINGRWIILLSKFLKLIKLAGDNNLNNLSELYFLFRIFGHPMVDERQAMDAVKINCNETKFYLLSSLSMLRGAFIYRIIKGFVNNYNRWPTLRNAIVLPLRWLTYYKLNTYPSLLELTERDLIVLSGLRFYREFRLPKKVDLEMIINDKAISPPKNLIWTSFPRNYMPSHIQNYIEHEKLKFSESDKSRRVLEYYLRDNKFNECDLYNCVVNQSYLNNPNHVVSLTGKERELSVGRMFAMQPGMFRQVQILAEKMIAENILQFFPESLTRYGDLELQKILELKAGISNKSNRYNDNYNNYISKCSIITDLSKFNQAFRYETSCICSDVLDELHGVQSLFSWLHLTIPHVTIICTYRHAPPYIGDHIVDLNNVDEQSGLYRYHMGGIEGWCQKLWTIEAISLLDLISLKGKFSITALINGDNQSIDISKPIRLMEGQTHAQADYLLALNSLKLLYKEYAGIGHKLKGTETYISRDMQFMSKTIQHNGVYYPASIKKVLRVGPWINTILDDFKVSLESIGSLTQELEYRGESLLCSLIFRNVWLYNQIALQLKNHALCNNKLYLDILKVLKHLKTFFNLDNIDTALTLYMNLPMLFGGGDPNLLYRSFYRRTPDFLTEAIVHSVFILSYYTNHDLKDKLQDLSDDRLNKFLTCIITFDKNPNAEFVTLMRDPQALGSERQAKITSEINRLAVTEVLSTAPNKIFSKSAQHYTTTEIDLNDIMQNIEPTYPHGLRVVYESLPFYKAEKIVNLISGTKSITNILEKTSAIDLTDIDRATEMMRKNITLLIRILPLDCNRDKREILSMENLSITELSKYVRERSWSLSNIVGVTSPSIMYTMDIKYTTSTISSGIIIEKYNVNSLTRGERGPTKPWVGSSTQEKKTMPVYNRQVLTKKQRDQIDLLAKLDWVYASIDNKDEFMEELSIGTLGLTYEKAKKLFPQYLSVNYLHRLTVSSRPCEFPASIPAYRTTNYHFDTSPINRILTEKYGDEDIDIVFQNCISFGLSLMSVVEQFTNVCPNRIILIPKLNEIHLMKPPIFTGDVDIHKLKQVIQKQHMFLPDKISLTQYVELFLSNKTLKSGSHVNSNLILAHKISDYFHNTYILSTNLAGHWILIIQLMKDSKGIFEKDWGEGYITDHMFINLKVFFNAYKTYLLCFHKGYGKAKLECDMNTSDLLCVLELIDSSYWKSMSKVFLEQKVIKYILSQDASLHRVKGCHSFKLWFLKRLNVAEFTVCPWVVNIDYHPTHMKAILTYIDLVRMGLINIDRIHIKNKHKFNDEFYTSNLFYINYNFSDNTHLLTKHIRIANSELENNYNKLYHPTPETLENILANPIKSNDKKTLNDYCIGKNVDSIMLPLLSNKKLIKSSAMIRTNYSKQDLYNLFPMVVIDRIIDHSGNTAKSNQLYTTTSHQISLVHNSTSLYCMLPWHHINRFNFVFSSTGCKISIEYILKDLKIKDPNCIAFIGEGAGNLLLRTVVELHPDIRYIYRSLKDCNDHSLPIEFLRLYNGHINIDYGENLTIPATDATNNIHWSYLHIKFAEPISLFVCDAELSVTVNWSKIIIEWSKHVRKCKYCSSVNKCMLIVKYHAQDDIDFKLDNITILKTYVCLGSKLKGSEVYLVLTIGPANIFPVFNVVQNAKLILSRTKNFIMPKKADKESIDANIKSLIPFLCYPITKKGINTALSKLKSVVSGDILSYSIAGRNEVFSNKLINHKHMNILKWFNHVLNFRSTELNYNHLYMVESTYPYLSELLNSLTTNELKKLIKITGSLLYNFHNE
Chain of RSV MTase-CTD protein (P28887 1755-2165): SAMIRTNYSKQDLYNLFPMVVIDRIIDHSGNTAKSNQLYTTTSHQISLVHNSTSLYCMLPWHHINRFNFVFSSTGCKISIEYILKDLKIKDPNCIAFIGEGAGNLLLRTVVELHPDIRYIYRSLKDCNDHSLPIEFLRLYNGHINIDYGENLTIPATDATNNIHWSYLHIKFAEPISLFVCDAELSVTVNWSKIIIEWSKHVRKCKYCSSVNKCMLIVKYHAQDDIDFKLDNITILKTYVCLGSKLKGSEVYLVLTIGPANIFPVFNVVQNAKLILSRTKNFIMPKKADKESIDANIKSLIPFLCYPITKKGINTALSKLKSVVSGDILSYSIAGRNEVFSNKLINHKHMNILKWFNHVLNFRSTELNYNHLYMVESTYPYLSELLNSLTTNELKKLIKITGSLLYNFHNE

| SMILES | MTase activity, RNA+compound+RSV MTase-CTD, CPM (RSV MTase-CTD protein; 50 uM) | MTase activity, RNA+compound+RSV MTase-CTD, CPM (RSV MTase-CTD protein; 200 uM) | MTase activity, RNA+compound+RSV L+P, CPM (RSV L+P complex [1]) | binding to purified RSV L+P (in words) (RSV L+P complex [2]) |
| --- | --- | --- | --- | --- |
| O=C(NC1CC1)c1cc2c(s1)-c1ccccc1N(C(=O)c1ccc(NC(=O)c3cccnc3N3CCC4(CC3)COC4)cc1)CC2 [AZ-27, reference compound] | 28343 CPM and 26589 CPM and 27119 CPM | 32944 CPM and 32511 CPM and 35155 CPM | 10786 CPM and 11483 CPM and 10556 CPM and 15234 CPM and 15171 CPM and 17548 CPM | – |
| Nc1nc2c(ncn2[C@@H]2O[C@H](COP(=O)(O)OP(=O)(O)O)[C@@H](O)[C@H]2O)c(=O)[nH]1 [GDP, guanosine diphosphate] | – | – | – | did not bind |
